This note sets out measurements from patent US11850266B2, “Cardiomyocytes and compositions and methods for producing the same” (President and Fellows of Harvard College, priority 2019, dated 2023).

SMILES strings stand for the structures.

This test has as its system iPSC-derived cardiomyocytes. Nature of the test: qPCR mRNA expression in iPSC-derived cardiomyocytes. The test is classed as cell-based, human. As for the experimental part: To prepare for differentiation, iPSCs were plated at a density between 20,000 to 80,000 cells (depending on the cell line) per well of a 12-well plate at four days prior to onset of differentiation. Cells were differentiated according to the protocol previously described by Lian et al. with some modifications (FIG. 1A) (1). Basal media was changed from StemFlex to RPMI/B27 on day 0 of differentiation. The GSK3 inhibitor, CHIR99021 (6 μM), was added for 48 hours from day 0 to day 2 of differentiation when cells were approximately 70-80% confluent. The Wnt antagonist IWP4 (5 μM) was added from days 2 to 4 of differentiation. Insulin (10 μg/ml) was added to the media starting on day 7 of differentiation, and media was changed every 2-3 days. In general, higher purity (TNNT2+) cardiomyocytes were observed when beating initiated prior to day 10 of differentiation, therefore only batches with onset of beating between days 7-10 of differentiation were included in this study. Beating cardiomyocytes were treated with Torin1 (200 nM, unless otherwise noted) or vehicle (0.02% dimethylsulfoxide (DMSO)) beginning at ˜2 days after onset of beating for 7 days (media changed with fresh Torin1 or DMSO every 2-3 days), unless otherwise noted. After Torin1 treatment, media was switched back to RPMI/B27/insulin and maintained with media change every 2-3 days until endpoint assay. In a few assays, fatty acids were added in the form of chemically defined lipids (Gibco) diluted 1:1000 simultaneous with Torin1 treatment. In some other assays, fetal bovine serum (10% FBS) was added to cells after completion of Torin treatment for 2-4 days.
RNA was extracted from cells using RiboZol (VWR) followed by the E.Z.N.A. Total RNA I kit (Omega) then reverse transcribed to cDNA with the High Capacity cDNA Reverse Transcription kit (Thermo Fisher Scientific) according to the manufacturer's instructions. Quantitative PCR (qPCR) was performed using the iTaq Universal SYBR Green Supermix (Bio-Rad) and the primer pairs listed in Table 1 with a Bio-Rad CFX384 Real-Time thermal cycler. TATA-binding protein (TBP) was used as the housekeeping gene.

Where [1] appears, read: Torin1 10-200 nM, 7 days, BJRiPS-CMs, FIG. 1E.

For `CCC(=O)N1CCN(c2ccc(-n3c(=O)ccc4cnc5ccc(-c6cnc7ccccc7c6)cc5c43)cc2C(F)(F)F)CC1` [Torin1], the “mRNA expression of TNNI3, CACNA1c and SERCA2a” value (200 nM Torin1 about two days after onset of beating, BJRiPS, FIGS. 18B-18D) is on record as “robust increase in mRNA expression”. The “fatty acid transport protein 6 (FATP6) mRNA” value (FIG. 3F) is recorded as “increase in mRNA expression”. The “HCN4 mRNA” value (FIG. 4A) is “non-significant trend of increased HCN4”. Moreover, under “FIGS. 13A-13B”, the “selected mitochondrial genes (qPCR) or proteins (western)” value is “Significant changes in selected mitochondrial genes (FIG. 13A) or proteins (FIG. 13B) were not observed”. In addition, for the setting “Torin1 200 nM from day 9, BJRiPS, FIG. 25B”, the “E2F4 mRNA” value was “increased mRNA expression of the inhibitory E2F member, E2F4”. Besides, where the note is “Torin1 200 nM from day 9, FIG. 25C”, the “RBL2 (p130) mRNA” value is listed as “increased mRNA expression of RBL2”. Also, for the setting “Torin1 200 nM from day 9, FIG. 25D”, the “MDM2 mRNA” value is given as “decreased mRNA expression of the E2 ubiquitin-protein ligase, MDM2”. In addition, the “MYH6, MYH7, TNNT2 mRNA” value (Torin1 10, 50, 200 nM, 7 days, BJRiPS-CMs, FIG. 2A) is given as “trended toward increased expression”. Besides, under “Torin1 10, 50, 200 nM, 7 days, FIG. 3F”, the “PPARGC1a mRNA expression” value was “dose-dependent increase”. Further, under setting [1], the “cyclin C1 and E2F1 proliferative markers (qPCR)” value is “significant decrease”; the “expression of quiescence markers including p16 and p130 (qPCR)” value is “non-significant trends toward increased expression”. In addition, the “KCNJ2, CACNA1c, RYR2, ATP2A2 (SERCA2A), SCN5A mRNA” value (Torin1 10 or 200 nM, 7 days, FIG. 4A) was “significant dose-dependent increase”. Where the note is “discussion of Example 1”, the “mRNA expression of p21” value is on record as “significantly decreased mRNA expression”. Also, the “TNNI3 mRNA expression” value (dose-dependent, Torin1 10, 50, 200 nM, 7 days, FIG. 2A) is “significantly increased”. For the same molecule, the “E2F1 mRNA” value (immediately after Torin1 treatment, transient increase at ~5 days, FIG. 25A) is given as “trend toward decreased mRNA expression of the stimulatory E2F member, E2F1”. Further, where the note is “initiation about 2 days after onset of beating, BJRiPS, FIG. 20A”, the “TNNI3 expression by time of Torin1 initiation (qPCR)” value is “trend toward higher TNNI3 expression”. Besides, where the note is “trend, Torin1 200 nM from day 9, FIG. 25E”, the “CDKN1a (p21) mRNA” value is recorded as “decreased mRNA expression of the cyclin inhibitor CDKN1a (p21)”. Further, the “CDK2 mRNA” value (trend, Torin1 200 nM from day 9, FIG. 25F) is on record as “increased mRNA expression of the cyclin-dependent kinase, CDK2”.
